Reference: patent US20090298752A1, “APLIDINE TREATMENT OF CANCERS” (PHARMA MAR, S.A., priority 1999, published 2009)
“Also recorded” adds a separate entry of the source.

Columns and labels:
Prostate PC-3 = assay: sc xenograft, prostate tumour, mouse; assay type: in vivo; settings: for Activity (% T/C.): xenograft, mouse
Procedure: Different model systems were evaluated to provide the basis for further clinical work. Selective antitumour activities were seen against two histologically different solid tumours: human gastric and prostate carcinomas. Potent in vitro activity to primary gastric tumour specimens or Hs746T gastric tumour cells is evident with IC30 values of 146 and 450 pM, respectively. […] activities were evaluated in nude rodents using sc implanted tumour fragments or hollow fibres (HF) containing tumour cells.
Follow-up studies necessitated using rats for iv infusions. With this variation, a 24 hr iv infusion schedule produced similar activities against HF gastric (20%) and HF prostate (31%) tumour cells. Cytotoxicity was also found using a 5 day iv infusion schedule against HF prostate tumour cells (33%).

VEGF mRNA = VEGF mRNA in MOLT-4 cells (Rnase protection); assay type: cell-based, human
P388 leukaemia = settings: mice; cited from earlier work
[1] = system: solid tumours and non-Hodgkin lymphoma; assay: Phase I, 24 h infusion every 2 weeks: antitumour activity; assay type: in vivo, human
Procedure: Aplidine is given as a 24 hour infusion every 2 weeks. The starting dose was 200 μg/m^2/d and dose escalation proceed including so far 400, 800, 1600, and 3200 μg/m^2/d. A total of 18 patients (M/F: 7/11, median age 52, OMS 0/1:10/8) have been entered. […] Among evaluable patients, toxicity consisted of mild grade I-II nausea/vomiting, grade I-II asthenia, and cramping occurring during or immediately after the infusion. No neuromuscular toxicity were reported at the evaluated doses. One patient with an advanced lung cancer and documented tumour progression at the dose of 1600 μg/m^2 developed a haemolytic anaemia and thrombocytopenia that was considered unlikely related to the study drug. […] An open 2-compartment model fits appropriately most plasma concentration profiles. […] The accrual is ongoing to determine the dose limiting toxicity and the dose to be recommended in phase II studies.
Aplidine was given to patients with solid tumour/NHL as a 24 hr infusion/q2w to 35 patients (median: age=51/ECOG=1) with solid tumour (32 pts) or NHL (3 pts). 23/35 patients were previously exposed to ≧3 previous lines of chemotherapy. Nine dose levels (200-7000 μg/m^2/w/q2w) and 65 cycles (120 infusions) were given. […] Toxicity consisted of G2-3 asthenia and emesis in 9-2 patients and 12-1 pts, respectively. G3 nausea/vomiting (≧5000 μg/m^2) was efficiently treated then prevented with 4HT3-regimens. […] At the dose of 5000 μg/m^2/w/q2w, 2 patients experienced transient muscle cramps with reversible G3 CPK-MM elevations. Among 9 patients treated at 6000 μg/m^2/w, 3 patients experienced an increase of CPK-MM and aldolase after the 3rd injection of aplidine. CPK elevations were G1-2 and not symptomatic in 2 patients but a G3 CPK elevation with G3 muscular pain and loss of muscle strength (DLT) was reported in 1 pt. This was reversible with no sequel. […] Ultrastructural electron microscopy indicated no morphological mitochondria alteration but a lost of the thick myosin filaments. At 7000 μg/m^2/q2w, 4 patients have been entered. […] Mechanistic hypothesis and preventive strategies against muscle toxicity are under evaluation.

aplidine
Optimal activities, xenografted prostate tumours (Prostate PC-3; ip administration, range over regimens): 25-38%
Activity (% T/C.) (Prostate PC-3; q4dx3.ip, 1.05 mg/kg): 38% T/C
Activity (% T/C.) (Prostate PC-3; q4dx3.ip, 2.10 mg/kg): 34% T/C
Activity (% T/C.) (Prostate PC-3; qd9.ip, 0.62 mg/kg): 30% T/C
Activity (% T/C.) (Prostate PC-3; qd9.ip, 1.25 mg/kg): 25% T/C
half life of VEGF mRNA, in words (VEGF mRNA): does not change the half life of VEGF mRNA
levels of VEGF mRNA, in words (VEGF mRNA; 20 nM aplidine): strong decrease; also recorded: decrease in the mRNA encoding for VEGF
activity against implanted tumour (P388 leukaemia): active
response, patient with non-Hodgkin lymphoma ([1]; Example 6): Clinical improvement
Activity observed in NHL ([1]; Example 14): 1/3
Activity observed in molecular thyroid ([1]; Example 14): 2/2
Activity observed in neuroendocrine cancer ([1]; Example 14): 1 pt
Activity observed in renal ([1]; Example 14): 1/5
antitumour activity in NHL and renal carcinoma ([1]; Example 18): Antitumour activity has been also noted
